Measured values published in patent EP1997826A2, “Synthetic ligands for immunoglobulins and pharmaceutical compositions containing them” (Tecnogen S.p.A., priority 2007, dated 2008).

Test system: RBL 2H3 cells
Assay: assay for degranulation of the RBL 2H3 cells (release of β-hexose-aminidase induced by anti-DNP IgE and DNP-BSA antigen)
Assay type: cell-based, rat
Text: The RBL 2H3 cell line, rat basophils that express the receptor with high affinity for the immunoglobulins of class E (FcεRl), is widely used for investigating allergic reactions, because in this cell line the chemical mediators of inflammation are released as a result of allergen specific-IgE-FcεRI binding.
Release of the enzyme β-hexose-aminidase, which is present together with histamine in the granules of mast cells and basophils, can be used as an index of cellular degranulation (Tanaka et al., 1991, Chem. Pharm. Bull, 39, 2072-2076; McCloskey et al., 1988, Proc. Natl. Acad. Sci., USA, 85, 7260-7264).
The activity of the enzyme β-hexose-aminidase, released by the stimulated RBL 2H3 cells, was determined by the method described by Yamanishi et al., 1995, Jour. Biotech. Biochem., 59 (7), 1272-1275, which envisages measurement of the enzymatic activity by measuring the absorbance of the product p-nitrophenol generated by the synthetic substrate p-nitrophenyl-N-acetyl-β-D-glucosamide. 1x10^5 RBL 2H3 cells, trypsinized from plates at confluence, were resuspended in a volume of 80 µl of the culture medium (MEM + 10% inactivated fetal bovine serum) and distributed in each well of the 96-well plates (Costar). After 24 hours, 20 µl of medium containing anti-2,4-dinitrophenol monoclonal IgEs (DNP, Sigma, Cat. No. D-8406) was added to each well.
The microplates were incubated at 37°C for one hour and then washed three times with 100 µl of HBS buffer solution (10 mM HEPES, 135 mM NaCl, 5 mM KCI, 1 mM CaCl2, 0.5 mM MgCl2, 5.6 mM glucose, 0.1 % BSA, pH 7.4). After the washings, 100 µl of HBS containing the 2,4-dinitrophenol antigen conjugated to BSA (Sigma, Cat. No. A-6661) was added. As a control, 100 µl of HBS containing 1% Triton X-100 was added to some wells to determine the total amount of enzyme contained in the cellular granules.
After further incubation at 37°C for two hours, 30 µl of cellular supernatant or of cellular lysate was transferred to a new microplate, to which 50 µl of sodium citrate buffer at pH 4.5, containing 4 mM p-nitrophenyl-N-acetyl-β-D-glucosaminide (Sigma, Cat. No. N9376), a specific substrate for the enzyme β-hexose-aminidase, had been added beforehand. After incubation for two hours at 37°C, the reaction was stopped by adding 100 µl of glycine solution 0.2 M, pH 10.7. The enzymatic activity was determined by measuring the absorbance at 405 nm with a Microplate Reader Model 3550 EIA (Bio-Rad).
In preliminary experiments the immunoglobulins E and the antigen were added at various concentrations in order to determine the optimum concentrations for induction of the reaction of enzymatic release. The conditions identified experimentally correspond to 0.5 µg/ml of IgE and 0.05 µg/ml of antigen DNP conjugated to BSA.
To verify the capacity of the peptides of formula IB and of comparative peptides for inhibiting the degranulation of the RBL 2H3 cells, the peptides were added in the assay together with the antigen at concentrations between 0.1 and 500 µg/ml.

With “(H-L-Cys(p-MeOBzl)-L-Arg-L-Thr-L-Tyr)2-Lys-Gly-Lys-OH [ID]” the “inhibition of degranulation, result in words compared with peptide IB” value was “Results similar to the results obtained with peptide IB”.
